# From article PMC7302004, “Tandem gene duplications drive divergent evolution of caffeine and crocin biosynthetic pathways in plants” (BMC Biology, 2020)
# Columns and labels:
# [1] = target: T1, GjALDH2C3 (Gardenia jasminoides, UniProt A0A288W8F8); test: in vitro oxidation, UPLC-DAD and LC-MS; type: biochemical; conditions: products crocetin and crocetin semialdehyde
# T1 sequence (A0A288W8F8 1-503): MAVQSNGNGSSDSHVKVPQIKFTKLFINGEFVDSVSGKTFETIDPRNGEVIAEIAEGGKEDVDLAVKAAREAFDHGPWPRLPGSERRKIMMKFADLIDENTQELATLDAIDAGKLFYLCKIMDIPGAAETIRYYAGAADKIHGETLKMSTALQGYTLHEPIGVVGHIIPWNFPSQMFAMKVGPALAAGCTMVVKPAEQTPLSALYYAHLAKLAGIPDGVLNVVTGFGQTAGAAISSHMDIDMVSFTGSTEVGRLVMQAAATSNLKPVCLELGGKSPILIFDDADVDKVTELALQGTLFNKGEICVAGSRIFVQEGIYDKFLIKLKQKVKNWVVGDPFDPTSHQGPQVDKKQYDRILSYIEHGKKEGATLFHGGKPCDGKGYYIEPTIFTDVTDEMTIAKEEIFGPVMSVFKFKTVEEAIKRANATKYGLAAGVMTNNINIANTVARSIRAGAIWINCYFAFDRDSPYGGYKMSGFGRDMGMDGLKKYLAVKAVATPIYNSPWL
# [2] = target: T2, GjUGT75L6 (Gardenia jasminoides, UniProt F8WKW0); conditions: purification not stated in main text
# T2 construct: gene UGT75L6
# T2 sequence (F8WKW0 whole entry): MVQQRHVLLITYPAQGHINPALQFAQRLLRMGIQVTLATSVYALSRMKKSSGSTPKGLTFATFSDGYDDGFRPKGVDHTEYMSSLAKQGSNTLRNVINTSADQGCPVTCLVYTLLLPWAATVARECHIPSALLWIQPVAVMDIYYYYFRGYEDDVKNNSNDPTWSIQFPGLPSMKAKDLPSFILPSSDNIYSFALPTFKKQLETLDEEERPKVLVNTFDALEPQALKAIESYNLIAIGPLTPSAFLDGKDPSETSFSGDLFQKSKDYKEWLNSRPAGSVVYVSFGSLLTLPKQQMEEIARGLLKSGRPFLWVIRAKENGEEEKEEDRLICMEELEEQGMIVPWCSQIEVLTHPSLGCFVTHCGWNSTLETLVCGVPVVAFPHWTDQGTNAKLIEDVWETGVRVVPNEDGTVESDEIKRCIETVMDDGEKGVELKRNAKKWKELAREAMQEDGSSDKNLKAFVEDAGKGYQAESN
# [3] = target: T3, GjUGT74F8 (Gardenia jasminoides, UniProt Z9ZI51R9R0); test: in vitro glucosylation, UPLC-DAD and LC-MS; type: biochemical; conditions: products crocin III and crocin V
# T3 sequence (Z9ZI51R9R0 1-457): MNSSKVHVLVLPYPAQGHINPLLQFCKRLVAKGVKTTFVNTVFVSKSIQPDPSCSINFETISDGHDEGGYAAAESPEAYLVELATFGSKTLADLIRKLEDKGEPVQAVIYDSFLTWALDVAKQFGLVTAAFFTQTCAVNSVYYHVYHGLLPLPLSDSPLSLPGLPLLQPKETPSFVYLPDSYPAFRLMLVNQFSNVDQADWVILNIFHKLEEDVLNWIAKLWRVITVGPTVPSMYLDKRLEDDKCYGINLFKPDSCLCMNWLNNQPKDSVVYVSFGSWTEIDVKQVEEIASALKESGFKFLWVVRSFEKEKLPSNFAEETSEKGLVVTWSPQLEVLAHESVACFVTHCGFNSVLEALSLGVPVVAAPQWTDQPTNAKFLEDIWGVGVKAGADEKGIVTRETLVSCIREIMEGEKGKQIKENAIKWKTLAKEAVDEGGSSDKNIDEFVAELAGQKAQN
# [4] = target: T3, GjUGT74F8; test: in vitro de-glucosylation, UPLC-DAD and LC-MS; type: biochemical; conditions: reversible; product crocin IV
# [5] = target: T4, GjUGT94E13 (Gardenia jasminoides, UniProt A0A288W8G7); test: in vitro glucosylation, UPLC-DAD and LC-MS; type: biochemical; conditions: product crocin I
# T4 sequence (A0A288W8G7 1-446): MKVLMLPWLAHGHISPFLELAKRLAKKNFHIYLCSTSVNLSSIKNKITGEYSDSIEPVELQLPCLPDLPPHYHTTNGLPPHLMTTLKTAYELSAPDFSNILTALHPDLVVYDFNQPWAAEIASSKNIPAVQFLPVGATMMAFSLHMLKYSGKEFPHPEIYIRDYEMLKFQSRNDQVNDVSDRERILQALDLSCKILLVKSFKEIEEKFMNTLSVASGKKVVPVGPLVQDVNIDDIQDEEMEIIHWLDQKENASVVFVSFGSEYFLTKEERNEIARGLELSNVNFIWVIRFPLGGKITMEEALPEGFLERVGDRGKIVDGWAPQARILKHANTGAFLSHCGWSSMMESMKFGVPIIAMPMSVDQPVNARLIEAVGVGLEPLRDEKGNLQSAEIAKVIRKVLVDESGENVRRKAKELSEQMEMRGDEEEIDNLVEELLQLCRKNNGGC
# [6] = target: GjCCD4a (Gardenia jasminoides, UniProt A0A288W8F9); test: in bacterio carotenoid cleavage, UPLC-DAD and LC-MS; conditions: E. coli accumulating zeaxanthin; product crocetin dialdehyde
# GjCCD4a, sequence (A0A288W8F9 entry or part of it): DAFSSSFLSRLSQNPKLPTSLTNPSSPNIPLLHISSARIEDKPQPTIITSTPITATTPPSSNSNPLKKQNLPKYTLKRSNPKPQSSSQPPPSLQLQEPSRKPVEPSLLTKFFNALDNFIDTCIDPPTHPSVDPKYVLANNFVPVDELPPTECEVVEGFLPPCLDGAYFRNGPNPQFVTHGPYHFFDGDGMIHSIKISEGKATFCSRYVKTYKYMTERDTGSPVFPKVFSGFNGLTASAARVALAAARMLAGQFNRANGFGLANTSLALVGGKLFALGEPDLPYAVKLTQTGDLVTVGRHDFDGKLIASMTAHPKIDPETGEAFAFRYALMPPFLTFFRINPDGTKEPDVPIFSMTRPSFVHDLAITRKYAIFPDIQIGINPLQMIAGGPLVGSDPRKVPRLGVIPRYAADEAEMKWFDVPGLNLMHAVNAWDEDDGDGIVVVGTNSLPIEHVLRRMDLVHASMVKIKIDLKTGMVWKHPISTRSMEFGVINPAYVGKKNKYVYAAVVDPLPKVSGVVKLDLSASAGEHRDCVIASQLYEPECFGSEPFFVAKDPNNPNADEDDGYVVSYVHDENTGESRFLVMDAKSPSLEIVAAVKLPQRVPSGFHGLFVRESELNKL
smiles,measurement,setting,value
C\C(C=O)=C/C=C/C(C)=C/C=C/C=C(C)/C=C/C=C(\C)C=O [crocetin dialdehyde],"in vitro oxidation, UPLC-DAD and LC-MS",[1],Incubation of crocetin dialdehyde with GjALDH2C3 yielded two new peaks
CC(/C=C/C=C(\C)C(=O)O)=C\C=C\C=C(C)\C=C\C=C(/C)C(=O)O [crocetin],"in vitro glucosylation, UPLC",[2],"GjUGT75L6, and GjUGT94E13, were able to glycosylate crocetin and/or crocins"
same,"in vitro glucosylation, UPLC-DAD and LC-MS",[3],"Upon in vitro incubation of GjUGT74F8 with crocetin, two new peaks"
CC(/C=C/C=C(\C)C(=O)O[C@@H]1O[C@H](CO)[C@@H](O)[C@H](O)[C@H]1O)=C\C=C\C=C(C)\C=C\C=C(/C)C(=O)O[C@@H]1O[C@H](CO[C@@H]2O[C@H](CO)[C@@H](O)[C@H](O)[C@H]2O)[C@@H](O)[C@H](O)[C@H]1O [crocin II],"in vitro de-glucosylation, UPLC-DAD and LC-MS",[4],reversible conversion of crocin II to crocin IV and vice versa was observed
same,"in vitro glucosylation, UPLC-DAD and LC-MS",[5],GjUGT94E13 could efficiently catalyze the glycosylation of crocins II and III to crocin I
CC1=C(/C=C/C(C)=C/C=C/C(C)=C/C=C/C=C(C)/C=C/C=C(C)/C=C/C2=C(C)C[C@@H](O)CC2(C)C)C(C)(C)C[C@H](O)C1 [zeaxanthin],"in bacterio carotenoid cleavage, UPLC-DAD and LC-MS",[6],a new product with a retention time and characteristic fragment ions
